Assay results: publication PMC10604565, “Modified CLEC3A-Derived Antimicrobial Peptides Lead to Enhanced Antimicrobial Activity against Drug-Resistant Bacteria” (Antibiotics, 2023)
Like-named read-outs stand apart in the source and are kept apart here. Non-standard residues stand in square brackets, D forms with d. Residues, ends and D or L forms follow the SMILES beside them. No end group written: not given here.

Columns and labels:
[1] = tested on: gram-positive and gram-negative bacteria; conditions: cited from earlier work
From the text: We assessed the antimicrobial activity of the modified CLEC3A-derived peptides using an antimicrobial activity assay and determined their MIC50 (Figure 2). We used the well-investigated AMP LL-37 as a positive control. As negative controls, we used ST-16 (Ex1z), which corresponds to HT-16 with an abolished positive charge, and DK-29 (Ex2), which is solely the amphipathic α-helix of HT-47 without the positive charge of the N-terminus. […] First, we investigated the antimicrobial activity of the peptides modified from HT-16: RK-9 and ...

P. aeruginosa = type: cell-based, Pseudomonas aeruginosa (Psae-27853); conditions: 2 h, pH 7.4
Experimental: (§1) Pseudomonas aeruginosa (Psae-27853), Staphylococcus aureus (ATCC-29213), and methicillin-resistant Staphylococcus aureus (MRSA-43300) were used. Bacteria were cultivated in tryptic soy broth (TSB) (Merck, Darmstadt, Germany) at 37 °C and 225rpm or on TSB–agarose plates at 37 °C.
(§2) Bacteria were grown to an OD620 of 0.5, harvested by centrifugation, and washed with tris-glucose buffer (TG buffer: 10 mM tris, 5 mM glucose; pH = 7.4) (P. aeruginosa and S. aureus) or phosphate–glucose buffer (PG buffer: 10 mM K2HPO4, 5 mM glucose; pH = 7.4) (MRSA). Bacteria were adjusted to 2 × 10^6 colony forming units (CFU)/mL and were incubated in 1:2 dilutions for 2 h at 37 °C with CLEC3A-derived and modified CLEC3A-derived peptides in TG buffer or PG buffer. The known AMP LL-37 was used as a positive control, while the CLEC3A-derived peptides ST-16 (Ctrl 1) and DK-29 (Ctrl 2) and untreated bacteria were used as negative controls. The bacteria were then plated onto TSB–agarose plates in previously determined dilutions and cultured overnight at 37 °C. The number of grown colonies was determined with the ImageJ cell counter plugin and is presented as a percentage of the number of grown colonies from the untreated control. The minimal inhibitory concentration (MIC50) was defined as the concentration of antimicrobial peptide where only 50% of bacteria survived. Used peptide concentrations are provided in Supplementary Table S1.
(§3) Statistical analysis of results was performed with Prism 9.3.1 (471) (GraphPad, San Diego, CA, USA). All tables and graphs show calculated averages and standard deviations obtained from three individual experiments. Bar charts of the MIC50 include numerical values with confidence intervals (95%) as the legend. Statistical significance was determined with a paired ANOVA test followed by a Dunnett test and multiple comparisons, comparing each peptide with the respective parent peptide HT-16, HT-47, or WRK-30 as indicated in the figure captions.

S. aureus = type: cell-based, Staphylococcus aureus (ATCC-29213); conditions: 2 h, pH 7.4
Experimental: as §1, §2, §3

[2] = tested on: NIH3T3 cells (murine fibroblasts); experiment: Cytotoxicity assay (MTS); type: cell-based
Experimental: NIH3T3 cells (murine fibroblasts), obtained from Prof. Dr. Wielckens, were seeded and precultured overnight. For 24 h incubation with peptides, a density of 1 × 10^4 cells/well and for 96 h incubation with peptides a density of 5 × 10^3 cells/well was used. After preculturing, the culture medium was replaced and cells were incubated with a peptide-containing medium for 24 h and 96 h. Afterward, the peptide-containing medium was removed and cells were washed with PBS before adding CellTiter 96® AQueous One Solution (Promega, Madison, WI, USA) containing 3-(4,5-dimethylthiazol-2-yl)-5-(3-carboxymethoxyphenyl)-2-(4-sulfophenyl)-2H-tetrazolium (MTS) to the culture medium. Cells incubated with peptides for 24 h were incubated with MTS medium for 1 h at 37 °C, and absorbance was measured at 490 nm. Cells incubated with peptides for 96 h were incubated with MTS medium for 2 h at 37 °C before measuring the absorbance. Samples were measured in triplicates, and the cell viability of three individual experiments is presented as a percentage of the measured OD from the untreated control. As further controls, vancomycin (final concentration 7.35 µg/mL), colistin (final concentration 147 µg/mL), and 1% TritonX in culture medium were used. Used peptide concentrations are provided in Supplementary Table S2.

MRSA = type: cell-based, methicillin-resistant Staphylococcus aureus (MRSA-43300)
Experimental: as §1, §2, §3

[3] = Biostability assay in murine serum; type: in vitro ADME, murine (C57BL6/N); conditions: 30 µM peptide, room temperature; for Time for which the peptide was detectable in murine serum: pooled murine serum (C57BL6/N), samples 5 min, 10 min, n = 3
Experimental: The peptides (HT-47, WRK-30, and dWRK-30) were mixed with pooled murine serum, obtained from C57BL6/N wildtype mice via cardiac puncture immediately after death by cervical dislocation (the procedure was approved by the local government authority LANUV under permit no. UniKöln_Anzeige§4.22.001), to a final concentration of 30 µM. In parallel, a control with water and pooled murine serum was prepared. Both mixtures were incubated at room temperature, and samples were taken at the time points indicated in Supplementary Table S3. The samples were immediately added to a Novex Tricine SDS Sample Buffer containing a NuPage Sample Reducing Agent and incubated at 85 °C for 2 min. Boiled samples were stored at 4 °C. After the collection of all time points, samples were separated into 10–20% Tricine Gels. Gels with HT-47 and WRK-30 were subsequently transferred onto PVDF membranes (0.2 µm pore size) and immunoblot analysis with 1:200 dilutions of a custom-ordered and affinity-purified rabbit anti-WRK-30 (Eurogentec, Seraing, Belgium) antibody was performed. Gels with dWRK-30 were stained with Coomassie brilliant blue.

[4] = tested on: primary human cartilage cells; conditions: cited from earlier work
[5] = HT-47: immunoblot (anti-WRK-30), 6 h, 8 h, dWRK-30: SDS-PAGE, Coomassie, 24 h, 96 h

| Molecule | P. aeruginosa MIC50 (P. aeruginosa) [µM] | S. aureus MIC50 (S. aureus) [µM] | MRSA MIC50 (MRSA; 2 h, pH 7.4) [µM] | also measured |
| --- | --- | --- | --- | --- |
| STSQLQAQQSSQQQVQ [ST-16, negative control, corresponds to HT-16 with abolished positive charge] |  |  |  | Antimicrobial activity of negative control peptides (in words) [1]: Neither ST-16 nor DK-29 display any antimicrobial activity |
| WRKHSKRRVR [WRK-9] | 0.96 ± 0.46 | 0.56 ± 0.72 |  |  |
| RKHSKRRVR [RK-9] | 4.17 ± 0.69 | 1.62 ± 2.67 |  |  |
| RKHSKRRVRDKDGDLKTQIEKLWTEVNALKEI [RK-31] |  | 4.85 ± 3.10 |  |  |
| CC[C@H](C)[C@H](NC(=O)[C@H](CCCCN)NC(=O)[C@H](CCC(=O)O)NC(=O)[C@H](CCCCN)NC(=O)[C@H](CO)NC(=O)[C@H](CCCCN)NC(=O)[C@H](CCCNC(=N)N)NC(=O)[C@H](Cc1ccccc1)NC(=O)[C@H](Cc1ccccc1)NC(=O)[C@H](CC(=O)O)NC(=O)CNC(=O)[C@H](CC(C)C)NC(=O)[C@@H](N)CC(C)C)C(=O)NCC(=O)N[C@@H](CCCCN)C(=O)N[C@@H](CCC(=O)O)C(=O)N[C@@H](Cc1ccccc1)C(=O)N[C@@H](CCCCN)C(=O)N[C@@H](CCCNC(=N)N)C(=O)N[C@H](C(=O)N[C@H](C(=O)N[C@@H](CCC(N)=O)C(=O)N[C@@H](CCCNC(=N)N)C(=O)N[C@H](C(=O)N[C@@H](CCCCN)C(=O)N[C@@H](CC(=O)O)C(=O)N[C@@H](Cc1ccccc1)C(=O)N[C@@H](CC(C)C)C(=O)N[C@@H](CCCNC(=N)N)C(=O)N[C@@H](CC(N)=O)C(=O)N[C@@H](CC(C)C)C(=O)N[C@H](C(=O)N1CCC[C@H]1C(=O)N[C@@H](CCCNC(=N)N)C(=O)N[C@H](C(=O)N[C@@H](CCC(=O)O)C(=O)N[C@@H](CO)C(=O)O)[C@@H](C)O)C(C)C)[C@@H](C)CC)C(C)C)[C@@H](C)CC [LL-37, reference compound] |  |  |  | Cytotoxicity to NIH3T3 cells, 24 h (in words) ([2]; Figure 5A, 0.3, 3 and 30 µM peptide, 24 h, MTS, absorbance 490 nm, % of untreated control, n = 3): cytotoxic effects; MRSA MIC50 (MRSA; Figure 2c series, 2 × 10^6 CFU/mL, 2 h at 37 °C in PG buffer pH 7.4, plating and colony count, n = 3, ± confidence interval (95%), na: not applicable): 2.40 ± 0.42 µM; MRSA MIC50 (MRSA; Figure 3c series, 2 × 10^6 CFU/mL, 2 h at 37 °C in PG buffer pH 7.4, n = 3, ± confidence interval (95%), na: not applicable): 2.63 ± 1.21 µM; MRSA MIC50 (MRSA; Figure 8c series, 2 × 10^6 CFU/mL, 2 h at 37 °C in PG buffer pH 7.4, n = 3, ± confidence interval (95%)): 0.52 ± 0.64 µM |
| WRKHSKRRVRGGGLKTQIEKLWTEVNALKEI [WRK-30] |  |  |  | Time for which the peptide was detectable in murine serum ([3]; immunoblot (anti-WRK-30), 30 min, 1 h): up to 30 min |
| HTSRLKARKHSKRRVR [HT-16] | 0.51 ± 0.11 | 0.24 ± 0.13 | 9.25 ± 6.25 | Toxic effects to primary human cartilage cells [4]: no toxic effects; Cytotoxicity towards murine fibroblasts, overall statement [2]: does not show any signs of cytotoxicity |
| CC[C@@H](C)[C@@H](NC(=O)[C@@H](CCC(=O)O)NC(=O)[C@@H](CCCCN)NC(=O)[C@@H](CC(C)C)NC(=O)[C@@H](C)NC(=O)[C@@H](CC(N)=O)NC(=O)[C@H](NC(=O)[C@@H](CCC(=O)O)NC(=O)[C@H](NC(=O)[C@@H](Cc1c[nH]c2ccccc12)NC(=O)[C@@H](CC(C)C)NC(=O)[C@@H](CCCCN)NC(=O)[C@@H](CCC(=O)O)NC(=O)[C@H](NC(=O)[C@@H](CCC(N)=O)NC(=O)[C@H](NC(=O)[C@@H](CCCCN)NC(=O)[C@@H](CC(C)C)NC(=O)CNC(=O)CNC(=O)CNC(=O)[C@@H](CCCNC(=N)N)NC(=O)[C@H](NC(=O)[C@@H](CCCNC(=N)N)NC(=O)[C@@H](CCCNC(=N)N)NC(=O)[C@@H](CCCCN)NC(=O)[C@@H](CO)NC(=O)[C@@H](Cc1c[nH]cn1)NC(=O)[C@@H](CCCCN)NC(=O)[C@@H](CCCNC(=N)N)NC(=O)[C@H](N)Cc1c[nH]c2ccccc12)C(C)C)[C@H](C)O)[C@H](C)CC)[C@H](C)O)C(C)C)C(=O)O [dWRK-30] (H-[dW][dR][dK][dH][dS][dK][dR][dR][dV][dR]GGG[dL][dK][dT][dQ][dI][dE][dK][dL][dW][dT][dE][dV][dN][dA][dL][dK][dE][dI]-OH) | 1.46 ± 1.55 | 0.66 ± 0.36 | 2.34 ± 0.39 | Time for which the peptide was detectable in murine serum [3, 5]: up to 96 h |
| DKDGDLKTQIEKLWTEVNALKEIQALQTVCL [DK-29, negative control, solely the amphipathic α-helix of HT-47 without the positive charge of the N-terminus] |  |  |  | Antimicrobial activity of negative control peptides (in words) [1]: Neither ST-16 nor DK-29 display any antimicrobial activity |
| RKHSKRRVRGGGLKTQIEKLWTEVNALKEI [RK-30] | 2.64 ± 1.79 | 0.63 ± 0.68 | 4.51 ± 3.81 |  |
| HTSRLKARKHSKRRVRDKDGDLKTQIEKLWTEVNALKEIQALQTVCL [HT-47] |  |  | 9.88 ± 2.43 | Toxic effects to primary human cartilage cells [4]: no toxic effects; Time for which the peptide was detectable in murine serum [3, 5]: up to 8 h; Detection in murine serum after 24 h (in words) ([3]; pooled murine serum, immunoblot, 24 h (not shown)): disappeared |
| WRKHSKRRVRDKDGDLKTQIEKLWTEVNALKEI [WRK-31] |  | 1.03 ± 0.30 |  |  |
